Reference: ChEMBL document CHEMBL1221215, “A domino effect in antifolate drug action in Escherichia coli” (Nat Chem Biol, 2008)
Active and inactive are the calls of the source. The rule behind the calls is not given here.

Target: T1, Dihydrofolate synthase/folylpolyglutamate synthase (Escherichia coli (strain K12)) (UniProt P08192)
T1 sequence (whole entry): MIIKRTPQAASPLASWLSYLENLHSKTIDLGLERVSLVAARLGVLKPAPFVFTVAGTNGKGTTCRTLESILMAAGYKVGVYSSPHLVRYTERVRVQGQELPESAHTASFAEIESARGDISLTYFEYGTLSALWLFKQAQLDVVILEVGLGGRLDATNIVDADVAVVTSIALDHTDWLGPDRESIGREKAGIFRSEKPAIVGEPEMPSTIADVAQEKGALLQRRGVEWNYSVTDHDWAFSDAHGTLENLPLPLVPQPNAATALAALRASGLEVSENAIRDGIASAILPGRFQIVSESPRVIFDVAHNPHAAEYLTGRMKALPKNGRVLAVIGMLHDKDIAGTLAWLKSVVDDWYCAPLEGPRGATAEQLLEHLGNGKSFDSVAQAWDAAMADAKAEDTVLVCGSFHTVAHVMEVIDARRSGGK
Test: Inhibition of Escherichia coli K-12 recombinant His-tagged folylpoly-gamma-glutamate synthetase expressed in Escherichia coli BL21 at 200 uM LC-MS/MS method
Conditions: NCM3722

inhibition	SMILES
inactive	CN1c2c([nH]c(N)nc2=O)NCC1CNc1ccc(C(=O)N[C@@H](CCC(=O)O)C(=O)O)cc1 (some centres undefined)
Active	Nc1nc(=O)c2c([nH]1)NCC(CNc1ccc(C(=O)N[C@@H](CCC(=O)O)C(=O)O)cc1)=N2
inactive	COc1cc(Cc2cnc(N)nc2N)cc(OC)c1OC
inactive	Nc1nc(=O)c2nc(CNc3ccc(C(=O)N[C@@H](CCC(=O)O)C(=O)O)cc3)cnc2[nH]1
